Residue numbers refer to the chain shown, from its start. Like-named read-outs stand apart in the source and are kept apart here. Blank lines part the entries; values can stand above or below the compound they belong to.
Columns and labels:
Type in all cases: cell-based
Rolf G204E CNG channel = target: T1, Rolf G204E CNG channel (Rattus norvegicus, UniProt Q00195, G204E); details: for Hill coefficient n of cGMP activation: 2 patches
T1 sequence (Q00195 1-664 G204E): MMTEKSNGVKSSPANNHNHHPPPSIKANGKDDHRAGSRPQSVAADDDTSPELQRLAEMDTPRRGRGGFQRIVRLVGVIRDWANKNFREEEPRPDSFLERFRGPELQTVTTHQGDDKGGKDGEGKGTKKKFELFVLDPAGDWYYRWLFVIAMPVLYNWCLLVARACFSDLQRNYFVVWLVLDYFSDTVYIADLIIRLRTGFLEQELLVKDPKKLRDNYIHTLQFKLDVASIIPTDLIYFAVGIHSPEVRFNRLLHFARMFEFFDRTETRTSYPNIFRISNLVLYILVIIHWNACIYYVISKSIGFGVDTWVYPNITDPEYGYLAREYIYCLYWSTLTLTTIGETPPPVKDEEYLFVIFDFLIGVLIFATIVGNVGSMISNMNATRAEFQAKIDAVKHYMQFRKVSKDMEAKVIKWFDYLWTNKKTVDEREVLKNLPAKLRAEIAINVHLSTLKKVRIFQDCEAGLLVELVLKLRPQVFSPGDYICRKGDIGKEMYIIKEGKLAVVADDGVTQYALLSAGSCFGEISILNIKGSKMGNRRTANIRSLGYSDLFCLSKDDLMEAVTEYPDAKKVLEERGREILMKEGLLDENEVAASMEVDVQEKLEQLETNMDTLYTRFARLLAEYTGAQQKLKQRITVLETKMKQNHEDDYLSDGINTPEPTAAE

Molf G204E CNG channel = target: T2, Molf G204E CNG channel (Mus musculus, UniProt Q62398, G204E/M2V)
T2 sequence (Q62398 1-664 M2V/G204E): T1 sequence (Q00195 1-664 G204E) with M2V, P50S, Q69R, V77I, D115G, G118D, V297A, D611E, T661A, A662V

[1] = target: T3, bovine rod (Brod) CNG channel, α homomultimer (Bos taurus, UniProt Q00194); details: for Hill coefficient n of cGMP activation: six patches
T3 sequence (Q00194 1-690): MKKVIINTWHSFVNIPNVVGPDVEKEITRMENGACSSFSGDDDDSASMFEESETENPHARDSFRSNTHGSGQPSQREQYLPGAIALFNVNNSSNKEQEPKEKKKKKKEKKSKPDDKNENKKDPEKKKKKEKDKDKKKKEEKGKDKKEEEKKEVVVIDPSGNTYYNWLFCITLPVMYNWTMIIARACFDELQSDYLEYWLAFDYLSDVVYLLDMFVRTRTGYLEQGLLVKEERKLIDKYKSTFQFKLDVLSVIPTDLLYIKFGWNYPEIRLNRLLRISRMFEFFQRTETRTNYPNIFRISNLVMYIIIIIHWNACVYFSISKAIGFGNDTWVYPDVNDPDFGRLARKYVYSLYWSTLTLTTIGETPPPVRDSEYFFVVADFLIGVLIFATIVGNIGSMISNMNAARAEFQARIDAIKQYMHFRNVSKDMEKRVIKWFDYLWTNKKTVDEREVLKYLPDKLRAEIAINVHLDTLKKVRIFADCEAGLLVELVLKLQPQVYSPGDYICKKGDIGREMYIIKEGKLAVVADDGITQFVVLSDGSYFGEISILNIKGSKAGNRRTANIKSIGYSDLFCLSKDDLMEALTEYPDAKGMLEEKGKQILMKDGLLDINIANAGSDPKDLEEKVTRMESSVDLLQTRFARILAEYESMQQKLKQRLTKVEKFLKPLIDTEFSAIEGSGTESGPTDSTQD

[2] = target: T4, rat olfactory (Rolf) CNG channel, α homomultimer (Rattus norvegicus, UniProt Q00195); details: for Hill coefficient n of cGMP activation: six patches
T4 sequence (Q00195 1-664): T1 sequence (Q00195 1-664 G204E) with E204G

[3] = read-out: Percent inhibition by tetracaine

- DAG maximal percent inhibition (INmax) (Rolf G204E CNG channel; Rolf G204E, saturating 100 μM cGMP): 100%
- DAG concentration that fully suppresses cGMP-activated currents (Rolf G204E CNG channel; Rolf G204E, saturating cGMP): ~3 µM
- decrease of maximal current by DAG (Molf G204E CNG channel; Molf G204E, 1.5 μM DAG, saturating 100 μM cGMP): > 80%
- DAG maximal percent inhibition (INmax) (Molf G204E CNG channel; Molf G204E, saturating 100 μM cGMP): 100%
- DAG concentration that fully suppresses cGMP-activated currents (Molf G204E CNG channel; Molf G204E, saturating cGMP): ~3 µM
- decrease of maximal current by DAG ([1]; Brod, 1.5 μM DAG, saturating 2 mM cGMP): > 80%
- DAG concentration that fully suppresses cGMP-activated currents ([1]; Brod, saturating cGMP): ~3 µM
- decrease of maximal current by DAG ([2]; Rolf, 1.5 μM DAG, saturating 100 μM cGMP): 14%
- inhibition of cGMP-activated current by DAG (in words) ([2]; Rolf, 12 μM DAG, saturating cGMP): only partial inhibition
Compound: diacylglycerol [DAG]

- Hill coefficient n of cGMP activation (Rolf G204E CNG channel; Rolf G204E, +100 mV): 1.7
- Hill coefficient n of cGMP activation (Rolf G204E CNG channel; Rolf G204E, −100 mV): 1.7
- I/Imax of cGMP-activated current (Molf G204E CNG channel; Molf G204E, 1 μM cGMP, +100 mV): 0.15
- I/Imax of cGMP-activated current ([1]; Brod, 10 μM cGMP, +100 mV): 0.20
- Hill coefficient n of cGMP activation ([1]; Brod, +100 mV): 2.0
- Hill coefficient n of cGMP activation ([1]; Brod, −100 mV): 2.0
- Hill coefficient n of cGMP activation ([2]; Rolf, +100 mV): 2.8
- Hill coefficient n of cGMP activation ([2]; Rolf, −100 mV): 2.8
Compound: Nc1nc2c(ncn2[C@@H]2O[C@@H]3COP(=O)(O)O[C@H]3[C@H]2O)c(=O)[nH]1 [cGMP]

- inhibition at 40 µM (Rolf G204E CNG channel; [3]): 76.4%
- IC50 (Molf G204E CNG channel): 10.8 µM
- inhibition at 40 µM (Molf G204E CNG channel; [3]): 78.3%
- inhibition at 40 µM [1, 3]: 94.1%
- IC50 [2]: 140 µM
- inhibition at 40 µM [2, 3]: 10.4%
Compound: CCCCNc1ccc(C(=O)OCCN(C)C)cc1 [Tetracaine, tetracaine]
